From US20250057791A1, “PROTECTION AGAINST ARTHROPOD PARASITES WITH PURINERGIC RECEPTOR (OPR) ANTAGONISTS” (priority 2021, published 2025)

System: A. gambiae labellum sensilla (purine-sensitive cell)
Experiment: Tip recording of action potentials from A. gambiae labellum sensilla in response to agonists
Format: cell-based, Anopheles gambiae
Protocol: The tip recording method was used to record action potentials (spikes) from sensory cells in sensilla on A. gambiae labellum lobes.
Sensilla were exposed to test compounds and PR antagonists for ca. 2-4 s and spikes were counted in the first 2 s of recordings. Up to 4 test compounds were tested on a sensillum to evaluate potential agonists, each presented at 200 pM. To study responses as a function of dose for agonists ATP, adenosine, AMP, AMP-CPP and ATP+adenosine, up to 7 recordings were made at increasing doses of agonist from the same sensillum. Unless otherwise stated, recordings were made throughout from 4 to 16 sensilla from individual 4-6-day-old females per dose of agonist, antagonist and metal ion modulator. For example, a response curve established over 6 doses of an antagonist using 8 sensilla per dose involved recording from a sensillum of 48 separate mosquitoes. A given dose of a PR antagonist or metal ion modulator was only presented once to a sensillum. Two-second recordings were imported as ASCII files into DataView software for analysis of spike amplitude. Differences in spike amplitude generated by stimulation of one 8v sensillum/female with 1 mM sucrose (n=294 spikes from 6 females) 200 pM adenosine (n=207 spikes from 7 females) and 200 pM ATP (n=192 spikes from 7 females) were compared by measuring the spike amplitude in mV between the highest point of depolarisation and the lowest point of hyperpolarisation.
Spike counts elicited by 200 pM doses of nucleotides, nucleosides, purines, pyrimidines and water were log(x+1.25)-transformed (optimal constant numerically established using a maximum likelihood procedure) and analysed using a linear mixed effects model (function ‘lme’ in “nlme” R package) with mosquito number as random effect. To model inhomogeneous variance in residuals (near normal distribution, P=0.045, Shapiro-Wilk test, W=0.98604), the variance function ‘varldent’ in the “nlme” package that allows for different variance per treatment was used. Statistical differences were identified between treatments using post-hoc-Tukey test with contrasts adjusted by Holm's family wise error compensation (FWEC). Spike counts elicited by ATP, AMP, adenosine and their binary mixtures were analysed using a generalised linear model (LM) of log (x+10) transformed data and differences were identified using post-hoc-Tukey test with Holm's FWEC.
Log transformed spike amplitudes generated in response to ATP, adenosine and sucrose were compared using linear mixed effects models using the ‘lme’ function of the “nlme” R package, with spike amplitude as the dependent variable, treatment as the fixed factor and mosquito number within treatment as random effect. Residuals were normally distributed (Shapiro-Wilk test P>0.0563) and their variances homogeneous (Bartlett test P>0.9799); P-values were corrected using Holm's FWEC.
Dose-response models fitted to mosquito data were generated using the ‘drm’ command in the “drc” R package (version 2.5-12). Best fitting models (goodness of fit) and effects of dose of a compound were assessed using, respectively, ‘modelFit’ and ‘noEffect’ functions in the same R package. A 3-parameter logistic model (L3) was fitted to spike-counts recorded to increasing doses of adenosine, AMP, ATP and AMP-CPP. Spike numbers recorded in response to 200 pM ATP with increasing doses of PR antagonists added were analysed using a 4-parameter log-logistic model (LL.4) for A-317491 and spinorphin, using a 4-parameter Weibull model (W1.4) for PPADS, RB-2 and TMP, and using a 3-parameter log-logistic model (LL.3) for suramin. An L3 model was fitted to proportions of females feeding on increasing doses of ATP. Feeding rates on 20 μM ATP with increasing doses of a PR antagonist added were analysed using a 4-parameter log-logistic model (LL.4) with the median of the positive control (20 μM ATP) fixed as the upper asymptote. […]

[1] = spike frequency as a function of dose

**Q.** Which results are given for `Nc1ncnc2c1ncn2[C@@H]1O[C@H](COP(=O)(O)OP(=O)(O)OP(=O)(O)O)[C@@H](O)[C@H]1O` [ATP, Adenosine 5′-triphosphate]?
**A.** spike frequency (50 pM alone, mixture 50 pM of each agonist): 2.5±0.7 /2s; EC50 (Anopheles gambiae, spike frequency as a function of dose, read-out: ED50 (the source's name)): ~0.12 nM; spikes recorded at the asymptote (at 250 pM): approximately 30 spikes/2 s; Mean spike frequency per 2 s (±SEM) (each compound at 200 pM alone and in binary mixtures, T1 labellum sensilla): 33.04 per 2 s; detection threshold (labellum sensory cell): < 100 pM; ED95 [1]: ~0.2 nM; dose at which the unsurmountable asymptote is reached [1]: 250 pM
